Measurements: ChEMBL document CHEMBL4507320, “Data for DCP probe NVS-MALT1” (2021)

Tests used:
[1] = target: Dual specificity mitogen-activated protein kinase kinase 7 (Homo sapiens) (UniProt O14733); settings: Compound concentration 1000.0 nM
[2] = target: TGF-beta receptor type-2 (Homo sapiens) (UniProt P37173); settings: Compound concentration 1000.0 nM
[3] = target: Serine/threonine-protein kinase PknB (Mycobacterium tuberculosis) (UniProt P9WI81); settings: Compound concentration 1000.0 nM
[4] = target: Alpha-2A adrenergic receptor (Homo sapiens) (UniProt P08913); settings: Compound concentration 10.0 uM
[5] = target: Serine/threonine-protein kinase 3 (Homo sapiens) (UniProt Q13188); settings: Compound concentration 1000.0 nM
Sequence of Serine/threonine-protein kinase 3 (Homo sapiens) (Q13188 whole entry): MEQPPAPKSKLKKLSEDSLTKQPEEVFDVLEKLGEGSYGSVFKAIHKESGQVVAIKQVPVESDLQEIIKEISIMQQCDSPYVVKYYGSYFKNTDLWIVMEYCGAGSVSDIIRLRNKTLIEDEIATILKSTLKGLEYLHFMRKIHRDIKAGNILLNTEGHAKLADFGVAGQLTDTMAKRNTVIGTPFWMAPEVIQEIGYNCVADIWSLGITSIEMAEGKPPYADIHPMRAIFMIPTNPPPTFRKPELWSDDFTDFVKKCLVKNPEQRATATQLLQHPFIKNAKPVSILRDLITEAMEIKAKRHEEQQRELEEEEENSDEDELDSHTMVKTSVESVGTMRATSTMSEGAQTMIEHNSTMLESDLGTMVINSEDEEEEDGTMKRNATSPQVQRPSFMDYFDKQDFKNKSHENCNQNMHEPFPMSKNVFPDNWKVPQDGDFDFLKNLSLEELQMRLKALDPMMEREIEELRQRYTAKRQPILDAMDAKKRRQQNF

[6] = target: Ephrin type-B receptor 2 (Homo sapiens) (UniProt P29323); settings: Compound concentration 1000.0 nM
[7] = target: Cyclin-dependent kinase 16 (Homo sapiens) (UniProt Q00536); settings: Compound concentration 1000.0 nM
[8] = target: Mitogen-activated protein kinase kinase kinase kinase 4 (Homo sapiens) (UniProt O95819); settings: Compound concentration 1000.0 nM
[9] = target: Tyrosine-protein kinase JAK1 (Homo sapiens) (UniProt P23458); settings: Compound concentration 1000.0 nM
[10] = target: Kappa-type opioid receptor (Homo sapiens) (UniProt P41145); settings: Compound concentration 10.0 uM
[11] = target: Muscle, skeletal receptor tyrosine-protein kinase (Homo sapiens) (UniProt O15146); settings: Compound concentration 1000.0 nM
[12] = target: 3-phosphoinositide-dependent protein kinase 1 (Homo sapiens) (UniProt O15530); settings: Compound concentration 1000.0 nM
[13] = target: Protein kinase C iota type (Homo sapiens) (UniProt P41743); settings: Compound concentration 1000.0 nM
[14] = target: Mitogen-activated protein kinase kinase kinase kinase 5 (Homo sapiens) (UniProt Q9Y4K4); settings: Compound concentration 1000.0 nM
[15] = target: Ribosomal protein S6 kinase alpha-2 (Homo sapiens) (UniProt Q15349); settings: Compound concentration 1000.0 nM
[16] = target: Ephrin type-A receptor 3 (Homo sapiens) (UniProt P29320); settings: Compound concentration 1000.0 nM
[17] = target: Serine/threonine-protein kinase Nek5 (Homo sapiens) (UniProt Q6P3R8); settings: Compound concentration 1000.0 nM
Sequence of Serine/threonine-protein kinase Nek5 (Homo sapiens) (Q6P3R8 whole entry): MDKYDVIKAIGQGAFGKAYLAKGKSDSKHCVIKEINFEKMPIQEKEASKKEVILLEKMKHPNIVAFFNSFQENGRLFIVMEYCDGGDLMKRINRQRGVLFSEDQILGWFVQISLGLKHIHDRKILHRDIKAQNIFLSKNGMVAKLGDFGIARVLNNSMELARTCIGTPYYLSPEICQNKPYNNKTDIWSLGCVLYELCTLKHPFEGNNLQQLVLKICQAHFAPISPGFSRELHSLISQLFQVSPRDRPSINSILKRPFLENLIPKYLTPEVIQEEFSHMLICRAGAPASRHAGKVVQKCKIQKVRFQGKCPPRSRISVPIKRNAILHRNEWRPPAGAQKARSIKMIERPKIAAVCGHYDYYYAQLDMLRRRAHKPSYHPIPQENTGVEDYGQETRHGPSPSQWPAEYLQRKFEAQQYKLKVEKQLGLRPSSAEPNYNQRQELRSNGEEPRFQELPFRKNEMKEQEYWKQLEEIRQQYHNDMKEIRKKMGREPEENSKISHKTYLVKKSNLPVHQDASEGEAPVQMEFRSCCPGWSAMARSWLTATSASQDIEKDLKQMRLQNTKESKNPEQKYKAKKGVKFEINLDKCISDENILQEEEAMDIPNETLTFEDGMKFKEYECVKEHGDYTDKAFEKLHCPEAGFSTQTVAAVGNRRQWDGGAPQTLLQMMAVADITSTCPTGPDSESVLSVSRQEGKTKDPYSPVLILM

[18] = system: Epidermal growth factor receptor (Homo sapiens), P00533 [G719C]; settings: Compound concentration 1000.0 nM
[19] = target: Protein kinase C eta type (Homo sapiens) (UniProt P24723); settings: Compound concentration 1000.0 nM
Sequence of Protein kinase C eta type (Homo sapiens) (P24723 whole entry): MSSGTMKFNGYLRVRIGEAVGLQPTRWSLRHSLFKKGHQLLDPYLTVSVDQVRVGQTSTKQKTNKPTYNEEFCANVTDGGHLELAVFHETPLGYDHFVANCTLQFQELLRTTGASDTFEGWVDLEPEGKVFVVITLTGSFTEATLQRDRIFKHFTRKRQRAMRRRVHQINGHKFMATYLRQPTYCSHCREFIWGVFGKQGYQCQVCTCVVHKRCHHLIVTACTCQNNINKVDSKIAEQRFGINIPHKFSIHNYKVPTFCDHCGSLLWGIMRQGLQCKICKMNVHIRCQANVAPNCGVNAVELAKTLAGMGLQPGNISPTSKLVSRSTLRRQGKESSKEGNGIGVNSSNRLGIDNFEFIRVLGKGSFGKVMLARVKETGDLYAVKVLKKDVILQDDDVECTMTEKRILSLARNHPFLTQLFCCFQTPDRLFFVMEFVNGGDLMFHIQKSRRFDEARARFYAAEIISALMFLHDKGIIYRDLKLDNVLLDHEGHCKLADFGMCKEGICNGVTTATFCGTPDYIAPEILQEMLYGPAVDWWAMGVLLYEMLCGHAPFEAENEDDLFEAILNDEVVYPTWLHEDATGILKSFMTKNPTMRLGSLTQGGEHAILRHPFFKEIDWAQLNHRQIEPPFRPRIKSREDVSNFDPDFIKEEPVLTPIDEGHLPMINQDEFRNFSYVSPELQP

[20] = target: Dual specificity protein kinase CLK2 (Homo sapiens) (UniProt P49760); settings: Compound concentration 1000.0 nM
[21] = target: Serine/threonine-protein kinase WNK3 (Homo sapiens) (UniProt Q9BYP7); settings: Compound concentration 1000.0 nM
[22] = target: Serine/threonine-protein kinase PLK2 (Homo sapiens) (UniProt Q9NYY3); settings: Compound concentration 1000.0 nM
[23] = target: Serine/threonine-protein kinase N2 (Homo sapiens) (UniProt Q16513); settings: Compound concentration 1000.0 nM
Sequence of Serine/threonine-protein kinase N2 (Homo sapiens) (Q16513 whole entry, looked up): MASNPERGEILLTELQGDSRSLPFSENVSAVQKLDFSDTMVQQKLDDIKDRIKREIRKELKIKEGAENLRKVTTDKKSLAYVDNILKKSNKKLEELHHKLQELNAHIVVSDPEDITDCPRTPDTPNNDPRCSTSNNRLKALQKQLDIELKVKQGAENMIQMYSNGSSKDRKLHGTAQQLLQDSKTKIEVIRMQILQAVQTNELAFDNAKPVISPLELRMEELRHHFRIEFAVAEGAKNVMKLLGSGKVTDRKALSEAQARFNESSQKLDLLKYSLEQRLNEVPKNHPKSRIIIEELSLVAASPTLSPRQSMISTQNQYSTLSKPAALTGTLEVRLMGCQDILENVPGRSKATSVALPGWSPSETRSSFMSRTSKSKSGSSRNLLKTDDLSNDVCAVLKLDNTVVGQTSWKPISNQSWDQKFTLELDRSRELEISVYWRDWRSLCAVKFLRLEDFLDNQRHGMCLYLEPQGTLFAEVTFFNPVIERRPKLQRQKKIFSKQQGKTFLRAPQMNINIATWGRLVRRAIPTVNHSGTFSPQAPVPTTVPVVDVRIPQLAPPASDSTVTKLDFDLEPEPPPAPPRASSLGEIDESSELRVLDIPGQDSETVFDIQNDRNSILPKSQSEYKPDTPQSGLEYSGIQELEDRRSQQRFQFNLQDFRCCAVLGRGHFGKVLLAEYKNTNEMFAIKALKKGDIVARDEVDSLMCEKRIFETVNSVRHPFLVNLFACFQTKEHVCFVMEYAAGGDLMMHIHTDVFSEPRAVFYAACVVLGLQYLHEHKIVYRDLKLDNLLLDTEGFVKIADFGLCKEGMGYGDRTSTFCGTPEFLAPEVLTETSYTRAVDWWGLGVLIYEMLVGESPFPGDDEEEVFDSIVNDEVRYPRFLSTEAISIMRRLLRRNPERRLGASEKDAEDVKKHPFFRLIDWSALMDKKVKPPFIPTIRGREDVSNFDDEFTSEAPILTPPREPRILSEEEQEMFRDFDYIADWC

[24] = target: Serine/threonine-protein kinase 24 (Homo sapiens) (UniProt Q9Y6E0); settings: Compound concentration 1000.0 nM
[25] = target: Macrophage colony-stimulating factor 1 receptor (Homo sapiens) (UniProt P07333); settings: Compound concentration 1000.0 nM
[26] = target: Protein kinase C delta type (Homo sapiens) (UniProt Q05655); settings: Compound concentration 1000.0 nM
[27] = target: Protein kinase C epsilon type (Homo sapiens) (UniProt Q02156); settings: Compound concentration 1000.0 nM
[28] = system: Phosphatidylinositol 4,5-bisphosphate 3-kinase catalytic subunit alpha isoform (Homo sapiens), P42336 [Q546K]; settings: Compound concentration 1000.0 nM
Sequence of Phosphatidylinositol 4,5-bisphosphate 3-kinase catalytic subunit alpha isoform (Homo sapiens), P42336 [Q546K] (P42336 whole entry Q546K, canonical isoform): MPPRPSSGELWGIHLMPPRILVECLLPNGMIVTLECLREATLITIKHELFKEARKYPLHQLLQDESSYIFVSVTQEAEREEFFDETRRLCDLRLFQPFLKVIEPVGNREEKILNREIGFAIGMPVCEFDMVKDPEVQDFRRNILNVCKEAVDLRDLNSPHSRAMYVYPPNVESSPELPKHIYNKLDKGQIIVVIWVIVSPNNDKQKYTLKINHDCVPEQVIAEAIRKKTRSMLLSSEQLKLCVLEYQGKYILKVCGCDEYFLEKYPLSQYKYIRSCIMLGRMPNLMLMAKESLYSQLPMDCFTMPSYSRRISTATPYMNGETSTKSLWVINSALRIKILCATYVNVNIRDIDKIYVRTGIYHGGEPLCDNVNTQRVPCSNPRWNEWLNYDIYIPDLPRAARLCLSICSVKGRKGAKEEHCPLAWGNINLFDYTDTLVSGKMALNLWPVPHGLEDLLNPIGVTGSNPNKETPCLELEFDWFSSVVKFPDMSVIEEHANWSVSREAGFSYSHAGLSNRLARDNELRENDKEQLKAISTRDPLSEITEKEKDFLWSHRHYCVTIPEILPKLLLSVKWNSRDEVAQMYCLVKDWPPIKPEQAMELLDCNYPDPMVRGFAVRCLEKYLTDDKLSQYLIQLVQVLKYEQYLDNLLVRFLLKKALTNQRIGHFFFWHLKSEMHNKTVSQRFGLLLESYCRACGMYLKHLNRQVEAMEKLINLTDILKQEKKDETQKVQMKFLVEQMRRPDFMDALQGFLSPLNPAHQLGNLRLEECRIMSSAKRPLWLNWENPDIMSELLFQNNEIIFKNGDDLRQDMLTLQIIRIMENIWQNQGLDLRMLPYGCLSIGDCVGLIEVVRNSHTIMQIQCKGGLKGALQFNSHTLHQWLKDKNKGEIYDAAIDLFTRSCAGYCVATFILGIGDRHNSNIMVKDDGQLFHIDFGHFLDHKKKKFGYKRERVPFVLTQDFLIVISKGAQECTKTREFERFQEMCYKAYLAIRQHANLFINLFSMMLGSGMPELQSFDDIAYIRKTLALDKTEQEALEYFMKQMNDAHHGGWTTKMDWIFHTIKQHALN

[29] = target: Dual specificity tyrosine-phosphorylation-regulated kinase 1B (Homo sapiens) (UniProt Q9Y463); settings: Compound concentration 1000.0 nM
[30] = system: Tyrosine-protein kinase ABL1 (Homo sapiens), P00519 [F317I]; settings: Compound concentration 1000.0 nM
[31] = target: Ribosomal protein S6 kinase beta-1 (Homo sapiens) (UniProt P23443); settings: Compound concentration 1000.0 nM
[32] = target: Casein kinase I isoform gamma-3 (Homo sapiens) (UniProt Q9Y6M4); settings: Compound concentration 1000.0 nM
[33] = system: Mast/stem cell growth factor receptor Kit (Homo sapiens), P10721 [D816H]; settings: Compound concentration 1000.0 nM
[34] = target: Non-receptor tyrosine-protein kinase TYK2 (Homo sapiens) (UniProt P29597); settings: Compound concentration 1000.0 nM
[35] = target: Tyrosine-protein kinase JAK2 (Homo sapiens) (UniProt O60674); settings: Compound concentration 1000.0 nM
[36] = target: Calcium/calmodulin-dependent protein kinase type II subunit gamma (Homo sapiens) (UniProt Q13555); settings: Compound concentration 1000.0 nM
[37] = target: Serine/threonine-protein kinase PAK 1 (Homo sapiens) (UniProt Q13153); settings: Compound concentration 1000.0 nM
[38] = target: Serine/threonine-protein kinase MRCK gamma (Homo sapiens) (UniProt Q6DT37); settings: Compound concentration 1000.0 nM
[39] = target: RAC-beta serine/threonine-protein kinase (Homo sapiens) (UniProt P31751); settings: Compound concentration 1000.0 nM
Sequence of RAC-beta serine/threonine-protein kinase (Homo sapiens) (P31751 whole entry): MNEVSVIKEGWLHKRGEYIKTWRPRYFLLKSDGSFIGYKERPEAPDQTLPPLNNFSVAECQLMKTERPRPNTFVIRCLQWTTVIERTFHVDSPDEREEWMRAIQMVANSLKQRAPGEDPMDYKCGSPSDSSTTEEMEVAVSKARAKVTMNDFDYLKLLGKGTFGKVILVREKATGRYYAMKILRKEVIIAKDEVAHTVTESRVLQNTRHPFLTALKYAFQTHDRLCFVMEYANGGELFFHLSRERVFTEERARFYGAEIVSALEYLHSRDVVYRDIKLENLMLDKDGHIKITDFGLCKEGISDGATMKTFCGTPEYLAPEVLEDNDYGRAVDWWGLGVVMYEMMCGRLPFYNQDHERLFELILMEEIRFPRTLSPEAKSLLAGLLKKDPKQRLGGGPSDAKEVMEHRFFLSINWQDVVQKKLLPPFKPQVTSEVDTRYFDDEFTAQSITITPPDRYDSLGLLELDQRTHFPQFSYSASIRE

[40] = target: Tyrosine-protein kinase ITK/TSK (Homo sapiens) (UniProt Q08881); settings: Compound concentration 1000.0 nM
[41] = target: Dual specificity mitogen-activated protein kinase kinase 3 (Homo sapiens) (UniProt P46734); settings: Compound concentration 1000.0 nM
[42] = target: Cyclin-dependent kinase 7 (Homo sapiens) (UniProt P50613); settings: Compound concentration 1000.0 nM
Sequence of Cyclin-dependent kinase 7 (Homo sapiens) (P50613 whole entry): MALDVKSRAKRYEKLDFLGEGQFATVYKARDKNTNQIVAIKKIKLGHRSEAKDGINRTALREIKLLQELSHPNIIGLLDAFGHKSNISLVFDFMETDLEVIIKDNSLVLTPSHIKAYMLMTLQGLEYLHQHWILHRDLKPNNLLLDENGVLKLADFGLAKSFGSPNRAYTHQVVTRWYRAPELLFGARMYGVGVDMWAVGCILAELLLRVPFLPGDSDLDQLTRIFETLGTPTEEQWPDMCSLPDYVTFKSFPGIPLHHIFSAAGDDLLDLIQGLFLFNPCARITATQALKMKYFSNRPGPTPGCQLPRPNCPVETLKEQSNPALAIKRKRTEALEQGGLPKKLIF

[43] = target: MAP kinase-interacting serine/threonine-protein kinase 2 (Homo sapiens) (UniProt Q9HBH9); settings: Compound concentration 1000.0 nM
[44] = target: TRAF2 and NCK-interacting protein kinase (Homo sapiens) (UniProt Q9UKE5); settings: Compound concentration 1000.0 nM
[45] = target: Serine/threonine-protein kinase STK11 (Homo sapiens) (UniProt Q15831); settings: Compound concentration 1000.0 nM

CO[C@@H](C)c1c(Nc2ccc([C@H](N(C)C(=O)C3CCS(=O)(=O)CC3)C(F)(F)F)cc2)cnc2cc(Cl)nn12 [NVS-MALT1]
inactive: residual activity [1] 100% | residual activity [2] 100% | residual activity [3] 87% | inhibition [4] 14.6% | residual activity [5] 92% | residual activity [6] 76% | residual activity [7] 66% | residual activity [8] 100% | residual activity [9] 91% | inhibition [10] 31.9% | residual activity [11] 83% | residual activity [12] 100% | residual activity [13] 72% | residual activity [14] 88% | residual activity [15] 79% | residual activity [16] 97% | residual activity [17] 84% | residual activity [18] 100% | residual activity [19] 86% | residual activity [20] 100% | residual activity [21] 95% | residual activity [22] 100% | residual activity [23] 100% | residual activity [24] 83% | residual activity [25] 77% | residual activity [26] 79% | residual activity [27] 100% | residual activity [28] 100% | residual activity [29] 78% | residual activity [30] 100% | residual activity [31] 100% | residual activity [32] 72% | residual activity [33] 100% | residual activity [34] 100% | residual activity [35] 100% | residual activity [36] 77% | residual activity [37] 74% | residual activity [38] 87% | residual activity [39] 99% | residual activity [40] 88% | residual activity [41] 93% | residual activity [42] 100% | residual activity [43] 100% | residual activity [44] 100% | residual activity [45] 68%

CO[C@@H](C)c1c(Nc2ccc([C@@H](N(C)C(=O)C3CCS(=O)(=O)CC3)C(F)(F)F)cc2)cnc2cc(Cl)nn12 [NVS-MALT1-C]
inactive: residual activity [1] 100% | residual activity [2] 100% | residual activity [3] 100% | inhibition [4] 5.1% | residual activity [5] 100% | residual activity [6] 92% | residual activity [7] 72% | residual activity [8] 100% | residual activity [9] 90% | inhibition [10] 29.4% | residual activity [11] 88% | residual activity [12] 97% | residual activity [13] 76% | residual activity [14] 100% | residual activity [15] 89% | residual activity [16] 90% | residual activity [17] 88% | residual activity [18] 98% | residual activity [19] 78% | residual activity [20] 100% | residual activity [21] 84% | residual activity [22] 100% | residual activity [23] 88% | residual activity [24] 89% | residual activity [25] 72% | residual activity [26] 90% | residual activity [27] 94% | residual activity [28] 100% | residual activity [29] 75% | residual activity [30] 100% | residual activity [31] 90% | residual activity [32] 71% | residual activity [33] 100% | residual activity [34] 100% | residual activity [35] 98% | residual activity [36] 84% | residual activity [37] 83% | residual activity [38] 86% | residual activity [39] 91% | residual activity [40] 94% | residual activity [41] 90% | residual activity [42] 100% | residual activity [43] 85% | residual activity [44] 100% | residual activity [45] 78%
